Blank lines part the entries; values can stand above or below the compound they belong to.
Tests used:
[1] = Stability of CSA-13 salts: purity under various conditions; assay type: physicochemical
Method: Approximately 300 mg of CSA-13 was weighed into a scintillation vial. 6 mL of tetrohydrofuran was added to the vial. Hydrochloric acid (2 equivalents) was then added to the vial. […] Solids were isolated and dried at ambient temperature prior to analysis.

[2] = Coating stability (sluff off) of polyurethane coatings on medical devices immersed in water; assay type: physicochemical
Method: (§1) In a first comparative test, medical devices made from various substrate materials (i.e., stainless steel, titanium, and silicone) were coated with polyurethane coatings containing either di-NDSA salts of CSA compounds (i.e., CSA-13 and/or CSA-131) or HCl acid addition salts of the same CSA compounds, and then tested for long-term stability when immersed in water. Coating stability was determined by measuring how fast the coatings began to sluff off from the medical device. The NDSA salts are di-addition salts.

[3] = Coating stability (sluff off) of silicone coatings on medical devices immersed in water; assay type: physicochemical
Method: as §1, with “second” for “first”, “silicone” for “polyurethane”, “device.” for “device. The NDSA salts are di-addition salts.”

[4] = Dynamic vapor sorption (DVS) analysis, XRPD before and after; assay type: physicochemical
Text: FIG. 9 provides an overlay of the XRPD spectrum pre- and post-DVS analysis.

[5] = Rate of elution of CSA from polyurethane coatings immersed in water; assay type: physicochemical
Text: (§2) In a third comparative test, medical devices made from various substrate materials (i.e., stainless steel, titanium, and silicone) were coated with polyurethane coatings containing either a di-NDSA salt of a representative CSA compound (i.e., CSA-131) or the HCl acid addition salt of the same CSA compound, and then tested to determine the rate of elution of the CSA compound from the coated medical device when immersed in water.

[6] = Rate of elution of CSA from silicone coatings immersed in water; assay type: physicochemical
Text: as §2, with “fourth” for “third”, “silicone” for “polyurethane”

[7] = Rate of elution of CSA from impregnated PLGA copolymer devices immersed in water; assay type: physicochemical; conditions: impregnated PLGA copolymer device
Text: In a fifth comparative test, medical devices were made from PLGA copolymer impregnated with either a di-NDSA salt of a representative CSA compound (i.e., CSA-131) or the HCl acid addition salt of the same CSA compound, and then tested to determine the rate of elution of the CSA compound from the medical device when immersed in water.

[8] = Reactivity with ethylene oxide (EtO) in polyurethane coating, by mass spectroscopy; assay type: physicochemical; conditions: ETT with polyurethane coating sterilized multiple times with EtO
Text: In a seventh comparative test, the elution rate and antibacterial activity of polyurethane coatings containing either the di-NDSA salt of a representative CSA compound (i.e., CSA-131) or the HCl acid addition salt of the same CSA compound following sterilization with ethylene oxide (EtO) were compared, and also the tendency of the acid addition salt of the CSA compound to react with the EtO.
For EtO reactivity with the HCl acid addition salt of CSA-131, the following percentages of CSA-131 and CSA-131-EtO adducts were observed via mass spectroscopy following EtO treatment of a medical device with a polyurethane coating containing the HCl acid addition salt of CSA-131.
(§3) Moreover, elution of CSA-131 from the ETT with the same polyurethane coating containing the di-NDSA of CSA-131 remained relatively consistent for 96 hours, providing continuous activity against biofilms. This is shown by the data in Table 25.

[9] = Elution of CSA-131 from polyurethane coating following EtO sterilization; assay type: physicochemical; conditions: for % of Total μg on OD: total CSA-131 content on OD 3976 μg; for Eluted Amount in μg/cm^3: total OD surface area 99.4 cm^2; for Average Amount Eluted: ETT polyurethane coating
Method: as §3, with “The elution rate of CSA-131 from the same polyurethane coating containing the HCl acid addition salt of CSA-131 (with solution exchange every 24 hours) is shown in Table 24: […] Moreover,” for “Moreover,”

[10] = Solvent solubility test (solvent addition technique); assay type: physicochemical
Method: (§4) Solubility values were estimated by a solvent addition technique, based on the following protocol: CSA-13 (20 mg) was weighed and individually distributed to 24 vials. Each solvent was added to the appropriate vial in 10 aliquots of 10 μL, 5 aliquots of 20 μL, 3 aliquots of 100 μL, and 1 aliquot of 500 μL. If complete dissolution was observed, the additions were stopped. Between additions, the sample was stirred to further encourage dissolution. If […] of solvent was added without dissolution, the solubility was calculated to be below this point. Polarized light microscopy analysis was performed on solids obtained from acetonitrile, 1,4-dioxane, ethyl acetate, isopropanol, and THF.
A solubility screen was performed as described above for the sulphate salt of CSA-13.
as §4, with “CSA-44” for “CSA-13”, “from acetone,” for “from”, “1,4-dioxane, ethanol,” for “1,4-dioxane,”, “acetate,” for “acetate, isopropanol,”, “methanol.” for “THF.”

[11] = polyurethane coating on Silicone
[12] = polyurethane coating on Stainless Steel
[13] = polyurethane coating on Titanium
[14] = silicone coating on Stainless Steel

Purity (%) ([1]; 40° C./75% RH): 97.93% | Purity (%) ([1]; 80° C.): 98.16% | Purity (%) ([1]; Ambient light): 98.57% | Purity (%) ([1]; Starting Purity): 98.52% | Sluff Off Time [2, 11]: None after 30+ days | Sluff Off Time [2, 12]: None after 30+ days | Sluff Off Time [2, 13]: None after 30+ days | Sluff Off Time ([3]; silicone coating on Silicone): None after 30+ days | Sluff Off Time [3, 14]: None after 30+ days | Sluff Off Time ([3]; silicone coating on Titanium): None after 30+ days
Structure (SMILES): CCCCCCCCNCCCC(C)C1CCC2C3C(OCCCN)CC4CC(OCCCN)CCC4(C)C3CC(OCCCN)C12C.O=S(=O)(O)c1cccc2c(S(=O)(=O)O)cccc12.O=S(=O)(O)c1cccc2c(S(=O)(=O)O)cccc12 (stereo not shown) [CSA-13 NDSA]

DVS hysteresis ([4]; dynamic vapor sorption isotherm (FIG. 7)): minimal hysteresis | Sluff Off Time [2, 11]: None after 30+ days | Sluff Off Time [2, 12]: None after 30+ days | Sluff Off Time [2, 13]: None after 30+ days | Sluff Off Time ([3]; silicone coating on Silicone): None after 30+ days | Sluff Off Time [3, 14]: None after 30+ days | Sluff Off Time ([3]; silicone coating on Titanium): None after 30+ days | Time for 50% of CSA to elute [5, 11]: >7 days | Time for 50% of CSA to elute [5, 12]: >7 days | Time for 50% of CSA to elute [5, 13]: >7 days | Time for 50% of CSA to elute ([6]; silicone coating on Silicone): >7 days | Time for 50% of CSA to elute [6, 14]: >7 days | Time for 50% of CSA to elute ([6]; silicone coating on Titanium): >7 days | Time for 50% of CSA to elute [7]: >7 days | EtO adducts observed by mass spectroscopy [8]: no EtO adducts were observed | % of Total μg on OD ([9]; 0-24 hours): 2.37% | Eluted Amount in μg/cm^3 ([9]; 0-24 hours): 0.95 μg/cm^2 | % of Total μg on OD ([9]; 24-48 hours): 2.14% | Eluted Amount in μg/cm^3 ([9]; 24-48 hours): 0.85 μg/cm^2 | % of Total μg on OD ([9]; 48-72 hours): 1.63% | Eluted Amount in μg/cm^3 ([9]; 48-72 hours): 0.65 μg/cm^2 | % of Total μg on OD ([9]; 72-96 hours): 2.01% | Eluted Amount in μg/cm^3 ([9]; 72-96 hours): 0.81 μg/cm^2 | Average Amount Eluted ([9]; Total over 0-96 hours): 324 µg | Average Amount Eluted ([9]; time interval 0-24 hours): 94.3 µg | Average Amount Eluted ([9]; time interval 24-48 hours): 84.9 µg | Average Amount Eluted ([9]; time interval 48-72 hours): 64.9 µg | Average Amount Eluted ([9]; time interval 72-96 hours): 80.1 µg | % of Total μg on OD ([9]; Total over 0-96 hours): 8.15% | Eluted Amount in μg/cm^3 ([9]; Total over 0-96 hours): 3.26 μg/cm^2 | Solubility in Ethanol (ethanol): <0.05 mg/mL | Solubility in Water (water): <0.02 mg/mL
Structure (SMILES): CCCCCCCCCCCCNCCCC(C)C1CCC2C3C(OCCCN)CC4CC(OC(=O)CCN)CCC4(C)C3CC(OCCCN)C12C.O=S(=O)(O)c1cccc2c(S(=O)(=O)O)cccc12.O=S(=O)(O)c1cccc2c(S(=O)(=O)O)cccc12 (stereo not shown) [CSA-131 NDSA]
Effect of DVS analysis on crystallinity ([4]; XRPD after DVS analysis (FIG. 8, 9)): did not significantly impact crystallinity

Approximate Solubility at 22° C. ([10]; solvent 1,4-dioxane): <11.3 mg/mL | Approximate Solubility at 22° C. ([10]; solvent 1-butanol): >37.7 mg/mL | Approximate Solubility at 22° C. ([10]; solvent 2-propanol): >20.9 mg/mL | Approximate Solubility at 22° C. ([10]; solvent Acetone): <10.5 mg/mL | Approximate Solubility at 22° C. ([10]; solvent Acetonitrile): <10.4 mg/mL | Approximate Solubility at 22° C. ([10]; solvent Dichloromethane): >193.9 mg/mL | Approximate Solubility at 22° C. ([10]; solvent Ethanol): >98.4 mg/mL | Approximate Solubility at 22° C. ([10]; solvent Methanol): >199.7 mg/mL | Approximate Solubility at 22° C. ([10]; solvent TBME): <10.1 mg/mL | Approximate Solubility at 22° C. ([10]; solvent Tetrahydrofuran): <11.0 mg/mL | Approximate Solubility at 22° C. ([10]; solvent Toluene): >102.8 mg/mL | Purity (%) ([1]; 40° C./75% RH): 97.50% | Purity (%) ([1]; 80° C.): 97.96% | Purity (%) ([1]; Ambient light): 99.76% | Purity (%) ([1]; Starting Purity): 99.34%
Structure (SMILES): CCCCCCCCNCCCC(C)C1CCC2C3C(OCCCN)CC4CC(OCCCN)CCC4(C)C3CC(OCCCN)C12C.O=S(=O)(O)O (stereo not shown) [sulphate salt of CSA-13]
